# Measurements reported in patent US20070037253A1, “Methods and compositions for treatment of arthritis and cancer” (priority 2003, published 2007).
# “Also recorded” adds a separate entry of the source. Where a SMILES comes first, the peptide text is derived from it.
# How the values were obtained:
# [1] = biological target: T1, purified human synovial sPLA2 (human Type IIA sPLA2) (Homo sapiens, UniProt P14555); assay: sPLA2 inhibition, 3H-arachidonate-labelled E. coli membrane assay; type: biochemical; settings: fixed peptide concentration (5 μM); 3H-labelled E. coli membrane assay; read-out: % Inhibition (mean ± SD)
# T1 construct: purchased Cayman Chemicals, USA
# T1 sequence (P14555 21-144): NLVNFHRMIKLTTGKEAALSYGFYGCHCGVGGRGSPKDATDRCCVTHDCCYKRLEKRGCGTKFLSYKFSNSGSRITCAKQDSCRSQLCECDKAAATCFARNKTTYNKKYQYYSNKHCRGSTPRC
# Procedure: In brief, [^3H] arachidonate-labeled E. coli membranes (0.005 mCi/mL; 5.8 μCi/μmol, NEN) were used as substrate, and 100 mM Tris-HCl—25 mM CaCl2, pH 7.5 solution as an assay buffer. The reaction mixture contained 20 μL of substrate, 0.85 pmole of purified human synovial sPLA2 (human Type IIA sPLA2, Cayman Chemicals, USA), and an increasing concentrations of the family of synthetic peptides derived from the sequence of PIP. The final volume of the reaction mixture was adjusted to 250 μL with an assay buffer. After incubation of the mixture (37° C., 1 h) and termination of the reaction with 750 μL of chilled PBS containing 1% BSA, microfuge tubes containing the samples were centrifuged (10,000 g at 4° C. for 15 min), and 500 μL aliquots of the supernatant taken to measure the amount of [^3H]-labeled arachidonate released from the E. coli membrane using liquid scintillation counting (Multipurpose Scintillation Counter LS 6500; Beckman, USA). As controls, sPLA2 was pre-incubated with the assay buffer alone. All samples, including controls, were performed in triplicate and plotted as the percentage inhibition relative to negative controls.
# A sigmoid dose response curve was generated to allow calculation of the IC50 values. All samples were performed in triplicate. Results were analyzed by nonlinear regression with GraphPad Prism (version 2.01) and expressed as the percentage of inhibition relative to control values.
# collagenase I (MMP-1) = assay: Collagenase activity assay, collagen thin film (collagen type II substrate); type: biochemical; settings: collagen thin film method, FIG. 2; read-out: IC50 (mean±SD), collagenase I (MMP-1)
# Procedure: Collagenase activity was assayed by collagen thin film method using collagen type II as substrate. IC50 values were graphically determined from the inhibition curves, constructed on the basis of the in vitro results of collagenase assays. Results are the mean±SD of 3 separate experiments done in triplicates. (•), P-NT.II; (□), PIP [59-67] dimer; (Δ), PIP [59-67} monomer; (∇), LY 315920.
# Collagenase activity assay: Using collagen thin film as the substrate, a quantitative method was established to measure the enzymatic activity of the MMPs (principally collagenase). Collagen type II (Sigma) solution (4 μL, 3 mg/mL in 0.012 N HCl) was added to each well of 96-well plates and precipitated by slowly increasing the pH with 4 μL of H2O and 8 μL of 0.012 N NaOH. The plate was dried at 23° C. for 24 hr, washed with H2O, and dried again at 23° C., resulting in a thin film containing 12 μg of collagen that was tightly bound to the bottom of the wells. Enzymatic reactions of the collagenase I (with and without peptide inhibitors) against the collagen films were carried out in quadruplicate at 24° C. for 16 h. The digested portion of the film was washed away, while the undigested portion was fixed for 3 h with 0.1% Coomassie brilliant blue R in 10% acetic acid and 45% methanol, and the wells washed and dried.
# MMP-1 gene transcript = assay: QRT-PCR relative mRNA expression in IL-1β-stimulated rabbit synovial fibroblasts; type: cell-based
# Description: (§1) FIG. 5 is a view of the effect of peptide on the relative expression of MMP and sPLA2 genes. QRT-PCR was used for assessing relative mRNA expression levels of IL-1β-stimulated rabbit synovial fibroblast cells in the presence and absence of the candidate lead peptide PIP [59-67] dimer. The amount of each mRNA was obtained by quantitative RT-PCR. The relative levels of gene expression were normalized to the housekeeping gene (GAPDH). […] Values are expressed as ±S.E.
# (§2) RNA isolation of cultured FLSCs: FLSCs were grown to 80% confluence on 12-well culture dishes and starved in a serum-free medium with 5 μM PIP [59-67] dimer for 2 h. The cells were then stimulated with 5 ng/mL IL-1β (Recombinant human, Chemicon, USA.) for 24 h, washed with cold PBS and total RNA isolated from peptide-treated (n=3) and untreated (n=3) FLSCs using RNeasy® mini kit. The RNA samples were subsequently treated with RNase-free Dnase-I at room temperature for 20 min and stored at −80° C. until use. The quality and quantity of extracted RNA was determined by spectrophotometry (Bio-Rad, USA). All RNA samples used for QRT-PCR experiments were of highest purity with A260/A280 ratios of 1.9-2.1. The integrity and relative contamination with residual genomic DNA was assessed by 1% denaturing agarose gel electrophoresis.
# (§3) Quantitative Real Time RT-PCR (LightCycler): Quantitative fluorescence-based real-time PCR was carried out according to the manufacturer's instructions using the LightCycler system with LightCycler FastStart DNA Master^PLUS SYBR Green I kit (Roche Diagnostics, Germany) as an independent method for assessing relative gene expression. Reverse Transcription (RT) of RNA and QRT-PCR were performed as follows: single stranded cDNA was generated from 3 μg of total RNA, 200 μM nucleotides, 500 units Superscript II reverse transcriptase (Invitrogen) and 1.5 μM oligo(dT)15 primers in 50 μL reactions. Reverse transcription was stopped after 1 hr by heating to 95° C. for 5 min. The primers were designed by Primer3 software: http://bioinformatics.weizmann.ac.il/cgi-bin/primer/primer3.cgi and subsequently checked for specificity using BLAST: http://www.ncbi.nlm.nih.gov/genome/seq/HsBlast.htmL. All primers and probes were synthesized by 1st BASE Pvt. Ltd., Singapore. The expression of GAPDH was used as an internal calibrator for equal RNA loading and to normalize relative expression data for all other genes analyzed. The copy ratio of each analyzed cDNA was determined as the mean of 3 experiments. The real-time quantitative RT-PCR data were quantified using relative quantification (2^−ΔΔCT) method as described [Livak, K. J, and Schmittgen, T. D. (2001) Analysis of relative gene expression data using real-time quantitative PCR and the 2(-Delta Delta C(T)) method.
# TIMP-2 gene = assay: as above; type: cell-based; settings: co-treatment with peptide, IL-1β-induced, normalized to GAPDH
# Description: as §1, §2, §3
# TIMP-1 gene transcript = assay: as above; type: cell-based; settings: 5 μM peptide, IL-1β-induced
# Description: as §1, §2, §3
# MMP-2 gene transcript = assay: as above; type: cell-based
# Description: as §1, §2, §3
# MMP-9 gene transcript = assay: as above; type: cell-based
# Description: as §1, §2, §3
# sPLA2 gene transcript = assay: as above; type: cell-based
# Description: as §1, §2, §3
# [2] = 5 μM peptide, IL-1β-induced, normalized to GAPDH
# [3] = IL-1β-stimulated rabbit synovial fibroblasts in culture
structure (smiles),measurement,setting,value
CC[C@H](C)[C@H](NC(=O)[C@H](CC(=O)O)NC(=O)[C@@H](N)C(C)C)C(=O)N[C@@H](Cc1c[nH]cn1)C(=O)N[C@H](C(=O)N[C@@H](Cc1c[nH]c2ccccc12)C(=O)N[C@@H](CC(=O)O)C(=O)NCC(=O)N[C@H](C(=O)N[C@H](C(=O)N[C@@H](CC(=O)O)C(=O)N[C@H](C(=O)N[C@@H](Cc1c[nH]cn1)C(=O)N[C@H](C(=O)N[C@@H](Cc1c[nH]c2ccccc12)C(=O)N[C@@H](CC(=O)O)C(=O)NCC(=O)N[C@H](C(=O)O)C(C)C)C(C)C)[C@@H](C)CC)C(C)C)C(C)C)C(C)C [PIP [59-67] dimer] (H-VDIHVWDGVVDIHVWDGV-OH; N-terminus and C-terminus assumed),inhibition at 5 µM,[1],74.5 ± 4.21%
same,IC50,collagenase I (MMP-1),7.75 ± 1.11 µM
same,MMP-1 mRNA expression level,MMP-1 gene transcript; [2],significantly inhibited; also recorded: significantly suppressed
same,decrease of MMP-1 mRNA expression,MMP-1 gene transcript; [3],> 1 fold
same,TIMP-2 gene expression,TIMP-2 gene,significantly inhibited
same,TIMP-1 mRNA expression level,TIMP-1 gene transcript,significantly suppressed
same,MMP-2 mRNA expression level,MMP-2 gene transcript; [2],significantly inhibited; also recorded: significantly suppressed
same,decrease of MMP-2 mRNA expression,MMP-2 gene transcript; [3],> 1 fold
same,MMP-9 mRNA expression level,MMP-9 gene transcript; [2],significantly inhibited; also recorded: significantly suppressed
same,decrease of MMP-9 mRNA expression,MMP-9 gene transcript; [3],> 1 fold
same,sPLA2 mRNA expression level,sPLA2 gene transcript; [2],significantly inhibited; also recorded: significantly suppressed
same,decrease of sPLA2 mRNA expression,sPLA2 gene transcript; [3],> 1 fold
